Measured values: patent US7829524B2, “Antimicrobial peptides” (Novozymes Adenium Biotech A/S, priority 2003, dated 2010)
Where no end group is shown, it is not given here.

How the values were obtained:
Assay type in all cases: cell-based
[1] = test system: Bortadella bronchiseptica (ATCC4617); test: Radial diffusion assay (MEC); settings: susceptible species
Protocol: (§1) A modified version of a previously published protocol has been applied in the detection of antimicrobial activity (Lehrer et al., (1991) Ultra sensitive assays for endogenous antimicrobial polypeptides J Immunol Methods 137: 167-173). Target bacteria (10^6 colony forming units (CFU)) were added to 10 ml of underlay agarose (1% low electro-endosmosis agarose, 0.03% Trypticase soy broth, 10 mM sodium phosphate, pH 7.4, 37 degrees Celsius). Suspension was solidified on an INTEGRID Petri Dish (Becton Dickinson Labware). A 3 mm Gel Puncher was used to make holes in the underlay agarose (Amersham Pharmacia Biotech, Sweden). Samples were added to the holes and incubated at 37 degrees Celsius, 3 hours. An overlay was poured on top and the plate was incubated overnight (LB media, 7.5% Agar). Antimicrobial activity was seen as bacterial clearing zones around the wells. Living cells was counterstained by adding 10 ml, 0.2 mM MTT (3-(4,5-Dimethylthiazol-2-yl)-2,5-diphenyltetrazolium bromide Thiazolyl blue).

[2] = test system: Bacillus subtilis (ATCC6633); test: Radial diffusion assay (MEC); settings: susceptible species
Protocol: as §1

[3] = test system: Proteus mirabilis (ATCC7002); test: Radial diffusion assay (MEC); settings: susceptible species
Protocol: as §1

[4] = test system: Staphylococcus aureus (ATCC29737); test: Radial diffusion assay (MEC); settings: susceptible species
Protocol: as §1

[5] = test system: Enterococcus hirae (ATCC10541); test: Radial diffusion assay (MEC); settings: susceptible species
Protocol: as §1

[6] = test system: Klepsiella pneumoniae (ATCC10031); test: Radial diffusion assay (MEC); settings: susceptible species
Protocol: as §1

[7] = test system: Enterococcus faecalis (DSM2570); test: Radial diffusion assay (MEC); settings: susceptible species
Protocol: as §1

[8] = test system: Eschericia coli (ATCC10536); test: Radial diffusion assay (MEC); settings: susceptible species
Protocol: as §1

[9] = test system: Staphylococcus epidermidis (DSM1798); test: Radial diffusion assay (MEC); settings: susceptible species
Protocol: as §1

[10] = test system: Micrococcus luteus (ATCC9341); test: Radial diffusion assay (MEC); settings: susceptible species
Protocol: as §1

[11] = test system: Salmonella choleraesuis (DSM9220); test: Radial diffusion assay (MEC); settings: susceptible species
Protocol: as §1

[12] = test system: Pseudomonas aeroginosa (ATCC27853); test: Radial diffusion assay (MEC); settings: susceptible species
Protocol: as §1

[13] = test system: Aerococcus viridans ATCC 700406
Protocol: (§2) According to the NCCLS guidelines for susceptibility test of novel antimicrobial compounds, we found a broad spectrum of activity of Cat1 (Methods for Dilution Antimicrobial Susceptibility Tests for Bacteria That Grow Aerobically; Approved Standard-Fifth Edition. NCCLS document M7-A5 (ISBN1-56238-394-9)).
(§3) In another campaign, the specific MICs of Cat1 were determined against a variety of microbial strains relevant for wound infections. As recommended in the above-mentioned NCCLS protocol, the strains were grown in cationic adjusted Muller-Hinton Broth. The highest concentration tested was 32 μg/ml.

[14] = test system: Escherichia coli ATCC 25922
Protocol: as §2, §3

bacteria strains = test: NCCLS microdilution broth assay, minimal bactericidal concentration (MBC); settings: compared with MIC (<64 μg/ml) of the susceptible strains
Description: as §2

[15] = test system: Clostridium difficile ATCC 43594; test: NCCLS microdilution broth assay (MIC), wound infection strains; settings: Table 1; cationic adjusted Muller-Hinton Broth; highest concentration tested 32 μg/ml
Protocol: as §2, §3

Question: Which results are given for “GLLRRLRKKIGKKLKKIGQKIKPIRILVP [SEQ ID NO: 3]”?
Answer: Minimal Effective Concentration (MEC) [1]: < 64 µg/mL; Minimal Effective Concentration (MEC) [2]: < 64 µg/mL; Minimal Effective Concentration (MEC) [3]: < 64 µg/mL; Minimal Effective Concentration (MEC) [4]: < 64 µg/mL; Minimal Effective Concentration (MEC) [5]: < 64 µg/mL; Minimal Effective Concentration (MEC) [6]: < 64 µg/mL; Minimal Effective Concentration (MEC) [7]: < 64 µg/mL; Minimal Effective Concentration (MEC) [8]: < 64 µg/mL; Minimal Effective Concentration (MEC) [9]: < 64 µg/mL; Minimal Effective Concentration (MEC) [10]: < 64 µg/mL; Minimal Effective Concentration (MEC) [11]: < 64 µg/mL; Minimal Effective Concentration (MEC) [12]: < 64 µg/mL; MIC [13]: 0.5 µg/mL; MIC [14]: 1.5 µg/mL; Minimal bactericidal concentration (MBC) (bacteria strains): in a similar range; MIC [15]: 32 µg/mL
